4 molecules from US4721713A, “Process for inhibiting blood platelet aggregation and promoting vasodilation” (Toyo Jozo Kabushiki Kaisha, priority 1986, dated 1988) can be followed below.

Data set [1] relates to platelet aggregation in platelet-rich rabbit plasma. Put plainly: Inhibitory effect on blood platelet aggregation, effect in vitro (ADP-induced). Conditions: for inhibition at 100 µM: Oryctolagus cuniculus, Platelet, 0.05 h, read-out: Inhibition Ratio on Platelet Aggregation (Mean ± S.E). Type of data set: cell-based. Here is the method:
An aggregating agent, adenosine-5'-diphosphate (final concentration 2.5 μM), was added thereto and the platelet aggregating potential was measured with an aggregometer.

For data set [2], the system named is number of platelets in the circulating blood. Put plainly: Effect in vivo: number of platelets in circulating blood after E. coli lipopolysaccharide. Details: species or system Male Wistar rats. Conditions: for Number of Platelets, Exp. 1 / Number of Platelets, Exp. 2: ratio pre- and post-administration, LPS 5 mg/kg i.p., 3 hours. The protocol:
Male Wistar rats, five animals in a group, were administered per orally the agents to be tested. After one hour, E. coli lipopolysaccharide (5 mg/kg) was injected intraperitoneally and 3 hours thereafter blood samples were collected and measured as to the number of platelets in the circulating blood to determine the ratio of platelets pre- and post-administration of the agents. The tests were repeated twice.

For data set [3], the system named is experimental disseminated intravascular coagulation. Put plainly: Effect on disseminated intravascular coagulation (E. coli lipopolysaccharide infusion). Format: in vivo, Male Wistar rats. Conditions: 100 mg/kg p.o. Here is the method: Male Wistar rats, seven animals in a group, were administered per orally the agents (100 mg/kg) to be tested. After one hour, E. coli lipopolysaccharide (50 mg/kg) was continuously injected intravenously for four hours. A control group was given physiological saline intravenously under the same conditions.
Blood was collected immediately after finishing the injection to measure the number of platelets, the activated partial thromboplastin time, the prothrombin time and the amount of fibrinogen. In the control group, in which E. coli lipopolysaccharide was injected, a marked decrease in the number of platelets and the amount of fibrinogen and a marked prolongation of the activated partial thromboplastin time and the prothrombin time are observed.

The test system of data set [4] is blood flow in left hind leg. Put plainly: Vasodilating activity upon intra-arterial administration (perfused left hind leg). Type of data set: in vivo, Mongrel dogs. Conditions: for Vasodilating Activity (relative to blood flow increase by papaverine 30 μg as 100%): 100 μg, i.a., mean ± S.E. for 3 animals. Here is the method:
Mongrel dogs anesthetized with urethane (450 mg/kg iv) and α-chlora-lose (45 mg/kg iv) after pretreatment with morphine (1.5 mg/kg, sc) were secured in a supine position. Blood from the right femoral artery was introduced into the left femoral artery through a circulation pump and the left hind leg was perfused under constant pressure by connection with a Starling's resistance in an exosomatic circulatory system. The prefusion pressure was set slightly higher than the mean blood pressure of each animal and the change in blood flow upon intra-arterial injection of the test compound was determined. The results, showing specific activity as compared with a value indicating the degree of increase in the amount of blood flow by papaverine (30 μg, iv) as 100%, are shown in Table 4.

Data set [5] has as its system arterial blood flow (vertebral, coronary, renal, femoral). The data set is described as follows: Vasodilating activity upon intravenous administration (regional arterial blood flow). Format: in vivo, mongrel dog. Conditions: FIG. 1. The source says:
A cuff-type probe for measuring blood flow was applied to the left vertebral artery, the left anterior descending coronary artery, the left renal artery and the right femoral artery of a mongrel dog anesthetized in the same way as hereinabove and the blood flow was continuously measured. The blood pressure was monitored by a pressure transducer connected to a cannula inserted into the left femoral artery, and the heart rate was monitored through a tachometer by triggering the R-wave of lead II of an electrocardiograph. The agent to be tested was injected into the left venous cephalica. The results are shown in FIG. 1, in which the ordinate indicates the response ratio and the abscissa indicates dosages by intravenous administration, and in which

For another data set, the system named is anoxia. Put plainly: Protective effect against anoxia. Format: in vivo, Male ddY strain mice. Conditions: for Survival Time: 200 mg/kg p.o., mean ± S.E. The protocol: The present compound and a control were administered per orally 30 or 60 mins. before the test.
The next data set relates to PAF-induced shock. The data set is described as follows: Effect against platelet activated factor (PAF)-induced shock. Type of data set: in vivo, Male ddY strain mice. Conditions: 100 mg/kg p.o. The protocol:
Male ddY strain mice, male, 10 animals in a group, were administered per orally the compound of the present invention (100 mg/kg), and after one hour PAF (60 μg/kg) was administered intravenously to determine the ratio of mortality.

A short description of a further data set: Acute toxicity in mice. Type of data set: in vivo. Conditions: mouse, in vivo.
Another data set has as its system mice. Put plainly: Acute toxicity in mice. Conditions: intravenous 100 mg/kg. Format: in vivo.
The next data set can be described thus: Acute toxicity in rats. Format: in vivo, male Wister rats. Conditions: rat, in vivo; oral, rats.
The next data set has as its system rats. The data set is described as follows: Acute toxicity in rats. Format: in vivo, male Wister rats.
The test system of data set [6] is L5178Y murine lymphoblastoma. The data set is described as follows: Cytotoxicity. Type of data set: cell-based. Conditions: 37° C. for 18 hours. Here is the method: To L5178Y murine lymphoblastoma (2×10^4 cells/ml) suspended in a medium (27 ml) comprising Fischer's culture medium including 10% bovine serum, were added test agents in solution (0.3 ml) diluted with a culture medium and the material was incubated at 37° C. for 18 hours. Growth of the cells was determined by color change. Growth inhibition of the cells was not observed at any concentration of 20 μg/ml and 100 μg/ml of the compound of the present invention, and so no cytotoxicity was observed.

Data set [7] concerns microorganism strains TA100, TA1535, WP2 uvr A, TA98, TA1537 and TA1538. The data set is described as follows: Mutagenicity, backward mutation test. Format: cell-based. Here is the method:
A backward mutation test using microorganism strains TA100, TA1535, WP2 uvr A, TA98, TA1537 and TA1538 was performed by the method according to Iyer et al. [N. Y. Iyer and W. Szybalski, Appl. Microbiol., 6: 37 (1958)]. The test agents were tenfold diluted in six stages of concentration of 0.00333-333 μg/disc.

Setting [8] is: final concentration 100 μM, ADP 2.5 μM.
Where [9] appears, read: final concentration 100 μM, ADP 2.5 μM, 37° C. for 3 minutes.
[10] abbreviates: LPS 50 mg/kg i.v. over four hours.
Setting [11] is: PAF 60 μg/kg i.v. after one hour.

Where two headings read alike, the source gives them in different places.

For `CC(=O)Oc1ccccc1C(=O)O` [Acetyl salicylic acid, acetyl salicylic acid], the inhibition at 100 µM in data set [1] was -0.6 ± 0.6%. Besides, the “Inhibitory effect on blood platelet aggregation (in words)” value (“Inhibitory effect” below) in data set [1] (setting [8]) is recorded as “no inhibitory effect”.
Turning to `Cc1nc(O)c(C(C)C)nc1C.Cl` [Present compound, 2-hydroxy-3-isopropyl-5,6-dimethylpyrazine hydrochloride], the inhibition at 100 µM in [1] (setting [9]) was determined as 69.6 ± 5.4%. Further, the “Inhibitory effect” value in data set [1] (setting [8]) is reported as “distinct inhibitory effect”. Besides, in [2] (100 mg/kg p.o.), the “Number of Platelets, Exp. 1” value was determined as 58.2 ± 7.8% and the “Number of Platelets, Exp. 2” value is on record as 55.9 ± 14.0%. In addition, in data set [2] (100 mg/kg per orally, compared with ticlopidine 200 mg/kg oral), the “Effect on decrease of platelet number (in words)” value is given as “inhibits the decrease of platelet number, which is comparable to an oral dose of 200 mg/kg ticlopidine”. Further, in [3] (setting [10]), the “Activated Partial Thromboplastin Time” value was determined as 48.5 ± 7.4 s, the Fibrinogen was 77.2 ± 13.1 mg/dL, the “Platelet Number” value was 177 ± 51 × 10^3 /mm^3 and the “Prothrombin Time” value turned out to be 14.3 ± 1.4 s. Also, the “Effect against all the factors tested (in words)” value in [3] (experimental disseminated intravascular coagulation) is recorded as “significant effect against all the factors tested”. Also, in data set [4], the “Vasodilating Activity (relative to blood flow increase by papaverine 30 μg as 100%)” value is 100.7 ± 19.1%. The “Vasodilating activity compared with tetramethylpyrazine (in words)” value in data set [4] (intra-arterial) was “markedly stronger vasodilating activity than that of the control drug, tetramethylpyrazine”. For the same molecule, in data set [5], the “Coronary arterial blood flow (in words)” value is reported as “increases blood flow in the vertebral artery, in the coronary artery”; the “Femoral arterial blood flow (in words)” value was “increases blood flow in the vertebral artery, in the coronary artery and in the femoral artery”; the “Renal arterial blood flow (in words)” value is “does not affect the renal arterial blood flow”; the “Selectivity for vertebral and coronary arterial blood flow (in words)” value is “Selective effects on the vertebral arterial blood flow and the coronary arterial blood flow”. Besides, in [5], the “Vertebral arterial blood flow (in words)” value is on record as “increases blood flow in the vertebral artery”. Further, in the data set on anoxia (pretreatment time 30 min.), the “Survival Time” value came to 42.7 ± 1.6 s. The “Survival Time” value with anoxia (pretreatment time 60 min.) is 48.1 ± 1.9 s. Besides, in the data set on anoxia (pretreatment per orally), the “Survival time (in words)” value is “Significant prolongation of survival time”. For the same molecule, the “Action against PAF-induced shock (in words)” value in the data set on PAF-induced shock was “protective action”. Further, in the data set on PAF-induced shock (setting [11]), the “Mortality, Experiment 1” value is given as 1/10 and the “Mortality, Experiment 2” value is recorded as 3/10. Besides, the LD50 (usually the dose expected to kill half of the subjects tested) in “Acute toxicity in mice” (intravenous, read-out: LD50) was roughly 200 mg/kg. Moreover, the LD50 in the data set “Acute toxicity in mice” (oral, read-out: LD50 oral) came to 555 mg/kg. In addition, the Death entry in the data set on mice is recorded as “no death was observed”. In addition, in “Acute toxicity in rats”, the LD50 came out at 903 mg/kg. Besides, the Death result in the data set on rats (intravenous 50 mg/kg, rats) is given as “no death was observed”. Besides, in the data set with rats (rat, in vivo, iv), the “Dose attainable due to the solubility of the compound” value is listed as “up to 50 mg/kg”. In addition, the “Growth inhibition of the cells” value in data set [6] (20 μg/ml) is given as “not observed”. Besides, the “Growth inhibition of the cells” value in data set [6] (100 μg/ml) is listed as “not observed”. Also, the Mutagenesis result in data set [7] (0.00333-333 μg/disc, any concentration) was “No mutagenesis was found”. For the same molecule, the “Mutagenesis under metabolic activation” value in data set [7] (metabolic activation using an S-9 mixture) is on record as “no mutagenesis was observed”.
Regarding `Cc1nc(C)c(C)nc1C` [Tetramethylpyrazine, tetramethylpyrazine], in data set [1] (setting [9]), the inhibition at 100 µM came out at 3 ± 1.6%. Further, the “Inhibitory effect” value in data set [1] (setting [8]) is on record as “no inhibitory effect”. Besides, the “Vasodilating Activity (relative to blood flow increase by papaverine 30 μg as 100%)” value in data set [4] is 19.3 ± 0.9%.
Regarding `Clc1ccccc1CN1CCc2sccc2C1` [Ticlopidine, ticlopidine, reference compound], the inhibition at 100 µM in data set [1] (setting [9]) was -1.2 ± 1.2%. Besides, in [1] (setting [8]), the “Inhibitory effect” value was “no inhibitory effect”. Moreover, in data set [2] (200 mg/kg p.o.), the “Number of Platelets, Exp. 1” value is listed as 57.9 ± 12.0% and the “Number of Platelets, Exp. 2” value was 63.4 ± 19.4%.
